Experiment: Pharmacokinetic properties in rats
Assay type: in vivo
Settings: male, SD
Method: The tested compound was dissolved in 10% NMP/10% polyethylene glycol-15-hydroxystearate/80% water, vortexed and sonicated to prepare a 2.5 mg/mL clear solution, which was filtered through a millipore filter for use. Three male SD rats were administered intravenously with the candidate compound solution at a dose of 5 mg/kg. The tested compound was dissolved in 10% polyethylene glycol-15-hydroxystearate/90% water (50 mM citrate buffer, pH 3.0), adjusted to pH of about 3.5, vortexed and sonicated to prepare a 5 mg/ml clear solution, which was filtered through a millipore filter for use. Three male SD rats were administered orally with the candidate compound solution at a dose of 50 mg/kg. The whole-blood for a certain period of time was collected to prepare plasma. The drug concentration was analyzed by the LC-MS/MS method, and the pharmacokinetic parameters were calculated by the Phoenix WinNonlin software (Pharsight, USA).

Work on `Cc1cc(Nc2ncnn3ccc(CN4CCC(N)CC4)c23)ccc1Oc1ccn2ncnc2c1` [Example 4] yielded a clearance (plasma, rat, IV 5 mg/kg) of 25.4 mL/min/kg, a Vd (plasma, rat, IV 5 mg/kg, read-out: Vdss) of 5.86 L/kg and a bioavailability (plasma, rat, PO 50 mg/kg, read-out: F (oral bioavailability)) of 49.6%. The AUC(0-inf) (rat plasma, IV 5 mg/kg) was 6.95 µM·h, the AUC(0-t) (rat plasma, IV 5 mg/kg) was 6.91 µM·h and the half-life (rat plasma, IV 5 mg/kg) was 3.34 h. For the same molecule, the AUC(0-inf) (rat plasma, PO 50 mg/kg) was 34.9 µM·h, the AUC(0-t) (rat plasma, PO 50 mg/kg) was 34.3 µM·h and the Cmax (rat plasma, PO 50 mg/kg) was 3.63 µM. It also gave a Tmax (rat plasma, PO 50 mg/kg) of 3.33 h and a half-life (rat plasma, PO 50 mg/kg) of 3.9 h.
